# Measured values taken from patent publication US4980377A, “1-(aminophenyl)-2-aminopropanone derivatives” (Laboratoire L. Lafon, priority 1984, dated 1990).
# Entries after “also recorded” stand apart in the source; their conditions may differ.
# Key:
# [1] = test system: mice; assay: Particular toxicity in grouped mice; settings: mice
# Description: (§1) The number of dead animals is noted after 1 hour, 2 hours, 3 hours, 4 hours and 24 hours.
# [2] = test system: rats; assay: Interaction with amphetamine; assay type: in vivo, rat; settings: i.p.
# Description: Amphetamine (2 mg/kg) is injected intraperitoneally into groups of 6 rats 30 minutes after the administration of CRL 41 153. […] 4 mg/kg and 16 mg/kg, CRL 41 153 potentiates the intensity and duration of the stereotypies induced by amphetamine.
# [3] = test system: gravid White New Zealand female rabbits; assay: Teratogenicity in gravid White New Zealand rabbits; assay type: in vivo, rabbit; settings: day 5 to day 18 of gestation; for Affected foetuses, %: normal limit 1.5%
# Summary of the method: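 Fetuses harvested by cesarean on gestation day 29 were scored for number and for any malformation (limb blockade, anury, tail or skull defects, exencephaly).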
# [4] = test system: mice; assay: Behavioral despair; assay type: in vivo, mouse; settings: forcibly immersed mice, i.p.
# Source text: Half an hour after they have received CRL 41 153, groups of 6 mice are placed in a beaker filled with water to a height of 6 cm. The total period of immobility between the 2nd and 6th minutes following immersion is noted.
# [5] = test system: mice; assay: Overall behavior and reactivities in mice; assay type: in vivo, mouse; settings: dose not stated
# Description: (§2) In the neuropsychopharmacological study which follows, a solution of CRL 41 153 in distilled water (pH 1.5) was administered intraperitoneally in a volume of 20 ml/kg to male mice and 5 ml/kg to male rats.
# (§3) Groups of three animals are observed before and then 0.25 hour, 0.50 hour, 1 hour, 2 hours, 3 hours and 24 hours after the administration of CRL 41 153.
# [6] = test system: mice; assay: Spontaneous motility; assay type: in vivo, mouse; settings: i.p.
# Description: 0.5 hour after they have received CRL 41 153, the mice (6 per dose, 12 control animals) are placed in an actimeter, where their motility is recorded for 30 minutes.
# [7] = test system: rats; assay: Overall behavior and reactivities in rats; assay type: in vivo, rat; settings: dose not stated
# Description: as §2, §3
# [8] = test system: mice; assay: Four plate test, traction and electric shock; assay type: in vivo, mouse; settings: i.p.
# Description: The test is performed on groups of 10 mice 30 minutes after the administration of CRL 41 153.
# [9] = test system: mice; assay: Motility reduced by hypoxic aggression; assay type: in vivo, mouse; settings: i.p.
# Description: Half an hour after they have received CRL 41 153, the mice (10 per dose, 20 control animals) are subjected to acute hypobaric anoxia [pressure reduction of 600 mm Hg (i.e. about 8×10^4 Pa) in 90 seconds; release of vacuum in 45 seconds] and are then placed in an actimeter, where their motility is recorded for 10 minutes.
# [10] = test system: CNS; assay: Complementary tests by oral (gastric) administration; assay type: in vivo; settings: gastric vs i.p.
# [11] = test system: nigrostriatal dopaminergic system; assay: Interaction with alpha-methyltyrosine on stereotypies (difference from amphetamine); settings: α-methyltyrosine (catecholamine synthesis blocked)
# [12] = test system: CNS; assay: Neuropsychopharmacological profile as a whole; assay type: in vivo, mice and rats; settings: for Peripheral α-adrenergic signs (mydriasis, salivation, lacrimation, exophthalmos): species and dose not stated
# Description: as §2
# [13] = test system: rats; assay: Interaction with apomorphine in rats; assay type: in vivo, rat; settings: i.p.
# Description: CRL 41 153 is administered to groups of 6 rats 0.5 hour before the subcutaneous injection of 0.5 mg/kg of apomorphine.
# [14] = test system: mice; assay: Interaction with apomorphine in mice; assay type: in vivo, mouse; settings: i.p.
# Description: Groups of 6 mice receive CRL 41 153 0.5 hour before the subcutaneous injection of 1 or 16 mg/kg of apomorphine.
# [15] = test system: mice; assay: Interaction with oxotremorine; assay type: in vivo, mouse; settings: i.p.
# Description: CRL 41 153 is administered to groups of 6 mice 0.5 hour before the intraperitoneal injection of 0.5 mg/kg of oxotremorine.
# [16] = test system: mice; assay: Interaction with reserpine; assay type: in vivo, mouse; settings: i.p.
# Description: Four hours after the intraperitoneal injection of 2.5 mg/kg of reserpine, groups of 6 mice receive CRL 41 153.
# [17] = test system: mice; assay: Motility reduced by habituation to the enclosure; assay type: in vivo, mouse; settings: i.p.
# Description: After they have stayed In the actimeters for 18 hours, (he mice (6 per dose, 12 control animals) receive CRL 41 153. They are immediately returned to their respective enclosures and, half an hour later, their motility is recorded for 30 minutes.
# [18] = test system: mice; assay: Interaction with barbital; assay type: in vivo, mouse; settings: i.p., barbital 220 mg/kg
# Description: Half an hour after the administration of CRL 41 153, groups of 10 mice receive an intraperitoneal injection of barbital (220 mg/kg).
# [19] = test system: humans; assay: Clinical study: vasodilator; assay type: in vivo, human
# Source text: In the treatment of diseases associated with the blood circulation through the vessels.
# [20] = test system: dogs; assay: Cardiovascular study in anesthetized dogs; assay type: in vivo, dog
# Description: Two dogs (average weight: 14.1 kg), anesthetized with nembutal, receive CRL 41 194 by intraduodenal administration at successive doses of 0.1 mg/kg, 0.5 mg/kg, 1 mg/kg, 2.5 mg/kg, 5 mg/kg and 10 mg/kg (in solution in physiological solvent).
# The blood pressure, the heart rate, the blood flow through the femoral artery, the blood flow through the vertebral artery and the rectal temperature are measured. The coloration of the skin and the coloration of the bile, collected by catheterization of the bile duct after ligature of the cystic duct, are observed.
# 4 dogs (average weight: 14 kg), anesthetized with nembutal, receive CRL 41 221 by intraduodenal administration at successive doses of 0.1 mg/kg, 0.5 mg/kg, 1 mg/kg, 2.5 mg/kg, 5 mg/kg and 10 mg/kg. The blood pressure, the heart rate, the blood flow through the femoral artery, the blood flow through the vertebral artery and the rectal temperature are measured. The coloration of the skin is observed.
# [21] = test system: mice; assay: Intergroup aggressiveness; assay type: in vivo, mouse; settings: i.p.
# Description: After they have stayed for 3 weeks in the two halves of a cage divided by an opaque partition, groups of 3 mice receive CRL 41 153. Half an hour later, the two groups from the same cage are brought together by removal of the partition, and the number of fights which occur in 10 minutes is noted.
# [22] = test system: mice; assay: Asphyxiant anoxia (gallamine triiodoethylate); assay type: in vivo, mouse; settings: i.p., curarizing agent
# Description: Groups of 10 mice receive CRL 41 153 half an hour before the intraperitoneal administration of 32 mg/kg of gallamine triiodoethylate (reference curarizing agent).
# [23] = pH of solutions in distilled water; assay type: physicochemical
# Description: The neuropsychopharmacological study was undertaken according to the procedures described above for CRL 41 153, CRL 41 213 being adminstered intraperitoneally, in solution in distilled water, in a volume of 20 ml/kg to male mice and a volume of 5 ml/kg to male rats, and the pH of the injected solution varying with the concentration of CRL 41 213 according to the data given in Table II below.
# [24] = Particular toxicity in grouped mice; settings: mouse, in vivo, ip
# Description: as §1
smiles,measurement,setting,value
CC(NC(C)(C)C)C(=O)c1ccc(N)cc1 (stereo not shown) [CRL 41 178],Particular toxicity to grouped mice,[1],existence of a particular toxicity to grouped mice
same,Effect on stereotypies induced by amphetamine,[2],potentiation of the effects of apomorphine and amphetamine in rats
same,"Affected foetuses, number",[3]; 5 mg/kg daily,1
same,Total foetuses (live),[3]; 5 mg/kg daily,90
same,"Affected foetuses, %",[3]; 5 mg/kg daily,1.11%
same,"Affected foetuses, number",[3]; 10 mg/kg daily,1
same,Total foetuses (live),[3]; 10 mg/kg daily,83
same,"Affected foetuses, %",[3]; 10 mg/kg daily,1.20%
same,"Affected foetuses, number",[3]; 50 mg/kg daily,1
same,Total foetuses (live),[3]; 50 mg/kg daily,92
same,"Affected foetuses, %",[3]; 50 mg/kg daily,1.10%
same,Period of immobility due to despair,[4],reduction in the period of immobility
same,Overall behavior: observed effects (summary),[5],excitation and hyperreactivity in mice and rats
same,Spontaneous motor activity,[6],increase in the motor activity
same,Overall behavior: observed effects (summary),[7],excitation and hyperreactivity in mice and rats
same,Stereotype movements (summary),[7],presence of stereotype movements
same,Effect on convulsant effects of electric shock,[8],"at high doses, antagonism of the convulsant effects of electric shock"
same,Motor recovery of mice after hypobaric hypoxia,[9],improvement in the motor recovery of mice whose activity has been depressed following hypobaric hypoxia
same,Action on gastric (oral) administration compared with intraperitoneal,[10],same types of action as after intraperitoneal administration; also recorded: the antidepressant effects are apparently developed better by oral administration than by intraperitoneal administration
same,Effect of alpha-methyltyrosine on the stereotypies induced by the substance,[11],differs from amphetamine in the mechanism of the effects which cause stereotypies
same,Anticonvulsant effects (overall),[12]; conclusion of the tests,anticonvulsant effects
same,Antidepressant effects (overall),[12]; conclusion of the tests,more modest antidepressant effects; also recorded: antidepressant component
same,Stimulant effects (overall),[12]; conclusion of the tests,distinct stimulant effects; also recorded: behaves as a stimulant as from the weakest doses
same,α-adrenergic stimulant effects (overall),[12]; conclusion of the tests,moderate α-adrenergic stimulant effects
same,"Peripheral α-adrenergic signs (mydriasis, salivation, lacrimation, exophthalmos)",[12],mydriasis (with neither piloerection nor salivation)
same,Effect on stereotypies induced by apomorphine,[13],potentiation of the effects of apomorphine and amphetamine in rats
same,Effect on hypothermia induced by apomorphine,[14],antagonism of the hypothermia
same,Effect on hypothermic action of oxotremorine,[15],antagonism of the hypothermia
same,Effect on hypothermia induced by reserpine,[16],antagonism of the hypothermia
same,Effect on ptosis induced by reserpine,[16],slight antagonism of the ptosis induced by reserpine
same,Motor activity of mice accustomed to their enclosure,[17],resumption in the activity of mice accustomed to their enclosure
same,Duration of the sleep induced by barbital,[18],antagonism of the sleep induced by barbital
CCNC(C)C(=O)c1ccc(N)cc1 (stereo not shown) [CRL 41 225],Vasodilator in human clinical use,[19],beneficial vasodilating properties from the clinical point of view
same,Vasodilator (conclusion),[20],vasodiating properties
same,Effect on stereotypies induced by amphetamine,[2],potentiation of the stereotypies
same,"Affected foetuses, number",[3]; 5 mg/kg daily,0
same,Total foetuses (live),[3]; 5 mg/kg daily,91
same,"Affected foetuses, %",[3]; 5 mg/kg daily,0%
same,"Affected foetuses, number",[3]; 10 mg/kg daily,0
same,Total foetuses (live),[3]; 10 mg/kg daily,95
same,"Affected foetuses, %",[3]; 10 mg/kg daily,0%
same,Period of immobility due to despair,[4],a decrease in the period of immobility
same,Overall behavior: observed effects (summary),[5],excitation with hyperreactivity in mice and rats
same,Stereotype movements (summary),[5],the presence of stereotype movements in mice and rats
same,Spontaneous motor activity,[6],an increase in the spontaneous motor activity of mice
same,Overall behavior: observed effects (summary),[7],excitation with hyperreactivity in mice and rats
same,Stereotype movements (summary),[7],the presence of stereotype movements in mice and rats
same,Number of fights / intergroup aggressiveness,[21],"at strong doses, a decrease in the number of fights"
same,Effect on convulsant effects of electric shock,[8],"at strong doses, a decrease in the convulsant effects of electric shock"
same,Number of punished passes in the four plate test,[8],an increase in the number of punished passes in the 4 plate test on mice
same,Motor recovery of mice after hypobaric hypoxia,[9],improvement in the motor recovery
same,Time taken for convulsions to occur,[22],a decrease in the time taken for convulsions and death to occur
same,Time taken for death to occur,[22],a decrease in the time taken for convulsions and death to occur
same,pH,[23]; 0.1 g/liter in distilled water,5.0
same,pH,[23]; 0.2 g/liter in distilled water,4.5
same,pH,[23]; 0.4 g/liter in distilled water,4.0
same,pH,[23]; 0.8 g/liter in distilled water,3.5
same,pH,[23]; 2 g/liter in distilled water,3.0
same,pH,[23]; 3 g/liter in distilled water,2.5
same,pH,[23]; 13 g/liter in distilled water,2.0
same,pH,[23]; 50 g/liter in distilled water,1.5
same,pH,[23]; ≤0.05 g/liter in distilled water,5.5
same,Antidepressant effects (overall),[12]; conclusion of the tests,antidepressant and stimulant properties
same,Stimulant effects (overall),[12]; conclusion of the tests,antidepressant and stimulant properties
same,α-adrenergic stimulant effects (overall),[12]; conclusion of the tests,an α-adrenergic stimulation component
same,"Peripheral α-adrenergic signs (mydriasis, salivation, lacrimation, exophthalmos)",[12],"at strong doses, by a reduction in the mydriasis and salivation"
same,Effect on stereotypies induced by apomorphine,[13],potentiation of the stereotypies
same,Effect on hypothermia induced by apomorphine,[14],antagonism of the hypothermia
same,Effect on hypothermic action of oxotremorine,[15],antagonism of the hypothermia
same,Effect on trembling induced by oxotremorine,[15],a decrease in the intensity of the trembling caused by oxotremorine
same,Effect on hypothermia induced by reserpine,[16],antagonism of the hypothermia
same,Effect on ptosis induced by reserpine,[16],a decrease in the ptosis induced by reserpine in mice
same,Motor activity of mice accustomed to their enclosure,[17],resumption in the motor activity of mice accustomed to their enclosure
same,Duration of the sleep induced by barbital,[18],a reduction in the duration of the sleep induced by barbital
"CC(N)Cc1ccccc1 (stereo not shown) [amphetamine, reference compound]",selectivity ratio,[24],~8
same,Effect of alpha-methyltyrosine on the stereotypies induced by the substance,[11],totally inhibits the stereotypies induced by amphetamine; also recorded: totally inhibited
